Results from US20250325662A1, “METHODS OF TREATING AND PREDICTING NON-RESPONSE TO ANTI-TNF TREATMENT IN SUBJECTS WITH GASTROINTESTINAL TRACT DISEASES” (BT Bidco, Inc., priority 2020, published 2025).
Counter-ions that a name gives are not always drawn.

Test system: IL-6, GM-CSF, IL-15, IL-2, IL-12, IL-13, TNF-α, and INF-γ

C[C@@H]1CCN(C(=O)CC#N)C[C@@H]1N(C)c1ncnc2[nH]ccc12 [tofacitinib citrate]
IL-6 expression in plasma (PO or IC administration, 1 h and 3 h post-treatment): inhibition of IL-6 expression | inhibition of IL-6 expression in colon tissue (all IC treated groups and high dose PO group (45 mg/kg)): sustained through 24 h post-dose | IL-6 inhibition in colon tissue (low dose PO group (15 mg/kg), by 12 h post-dose): Recovery from IL-6 inhibition
